Source: paper PMC9458058, “Synthesis of N-Substituted Iminosugar C-Glycosides and Evaluation as Promising α-Glucosidase Inhibitors” (Molecules, 2022)
Where two headings read alike, the source gives them in different places.

Target: α-glucosidase from yeast (Saccharomyces cerevisiae, UniProt P53341)
Assay: biochemical
Assay type: biochemical
Details: for inhibition of α-glucosidase, in words: Figure 3, 1 µg/mL, relative to lead compound 4 / Acarbose; for inhibition potency compared with compound 5λ, in words: Table 2
Method: The inhibitory potency of the synthesized N-substituted iminosugar C-glycosides 5 was assessed by testing the compounds in assays for the α-glucosidase from yeast. […] Alternatively, N atom was modified with various benzaldehydes, giving a library of iminosugar C-glycosides containing phenyl.
The extracts of each sample were dissolved in distilled water to prepare a certain concentration. 150 µL of the sample solution was mixed with 150 µL of maltose solution (prepared with 0.2 M, pH = 6.8 phosphate buffer) at a certain concentration, and cultured at 37 °C for 10 min. Then 150 µL of the enzyme solution at a certain concentration was added and mixed. The reaction was carried out at 37 °C for 60 min. The reaction was terminated in a boiling water bath for 10 min and centrifuged at 3000 r/min for 10 min. The supernatant was taken to determine the content of glucose with Glu kit. […] Enzyme activity inhibition rate (%) = (negative-sample)/(negative-blank) × 100%.

[1] = read-out: IC50 against α-glucosidase from yeast

Chain of α-glucosidase from yeast (P53341 whole entry): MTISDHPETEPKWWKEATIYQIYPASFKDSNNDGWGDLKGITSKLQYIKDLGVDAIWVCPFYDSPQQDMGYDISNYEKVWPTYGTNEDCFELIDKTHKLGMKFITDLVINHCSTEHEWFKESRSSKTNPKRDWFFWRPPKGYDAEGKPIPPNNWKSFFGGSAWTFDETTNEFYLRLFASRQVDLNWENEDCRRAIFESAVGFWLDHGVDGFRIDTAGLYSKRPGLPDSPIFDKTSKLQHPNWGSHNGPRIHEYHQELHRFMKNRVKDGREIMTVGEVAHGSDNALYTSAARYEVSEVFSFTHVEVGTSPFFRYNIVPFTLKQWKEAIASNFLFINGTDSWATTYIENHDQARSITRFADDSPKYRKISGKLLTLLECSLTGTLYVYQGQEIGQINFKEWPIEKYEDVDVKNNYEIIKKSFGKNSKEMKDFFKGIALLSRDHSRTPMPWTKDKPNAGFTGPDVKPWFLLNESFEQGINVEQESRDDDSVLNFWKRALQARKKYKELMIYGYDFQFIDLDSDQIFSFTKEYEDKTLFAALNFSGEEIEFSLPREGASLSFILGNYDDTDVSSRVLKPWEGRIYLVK

Compound | inhibition of α-glucosidase, in words | other results
CC(=O)C[C@H]1NC[C@@H](O)[C@@H](O)[C@H]1O [Compound 4, 1-C-Acetylmethyl-5-deoxy-5-amino-α-D-ribopyranoside] | weak inhibitory activity | IC50: > 20 µM
CCCN1C[C@@H](O)[C@@H](O)[C@@H](O)[C@H]1CC(C)=O [Compound 5a, (1R, 2S, 3R, 4R)-1-Acetylmethyl-2,3,4-trihydroxyl-N-n-propylpiperidine] | no improvement of α-glucosidase inhibition | –
CC(=O)CC1C(O)C(O)C(O)CN1Cc1ccc(C)cc1 [Compound 5j, (1R, 2S, 3R, 4R)-1-Acetylmethyl-2,3,4-trihydroxyl-N-4-methylbenzylpiperidine] | The same result was obtained | –
CC(=O)CC1C(O)C(O)C(O)CN1Cc1cccc(C)c1 [Compound 5k, (1R, 2S, 3R, 4R)-1-Acetylmethyl-2,3,4-trihydroxyl-N-3-methylbenzylpiperidine] | The same result was obtained | –
CC(=O)CC1C(O)C(O)C(O)CN1Cc1ccc(C(F)(F)F)cc1 [Compound 5l, (1R, 2S, 3R, 4R)-1-Acetylmethyl-2,3,4-trihydroxyl-N-4-trifluoromethylbenzylpiperidine] | The same result was obtained | –
CC(=O)CC1C(O)C(O)C(O)CN1Cc1ccc(C#N)cc1 [Compound 5m, (1R, 2S, 3R, 4R)-1-Acetylmethyl-2,3,4-trihydroxyl-N-4-cyanobenzylpiperidine] | The same result was obtained | –
CC(=O)CC1C(O)C(O)C(O)CN1Cc1ccc([N+](=O)[O-])cc1 [Compound 5n, (1R, 2S, 3R, 4R)-1-Acetylmethyl-2,3,4-trihydroxyl-N-4-nitrobenzylpiperidine] | The same result was obtained | –
COc1ccc(CN2C[C@@H](O)[C@@H](O)[C@@H](O)[C@H]2CC(C)=O)cc1 [Compound 5o, (1R, 2S, 3R, 4R)-1-Acetylmethyl-2,3,4-trihydroxyl-N-4-methoxylbenzylpiperidine] | The same result was obtained | –
COc1cccc(CN2C[C@@H](O)[C@@H](O)[C@@H](O)[C@H]2CC(C)=O)c1 [Compound 5p, (1R, 2S, 3R, 4R)-1-Acetylmethyl-2,3,4-trihydroxyl-N-3-methoxylbenzylpiperidine] | The same result was obtained | –
CC(=O)CC1C(O)C(O)C(O)CN1Cc1ccc(Cl)cc1 [Compound 5q, (1R, 2S, 3R, 4R)-1-Acetylmethyl-2,3,4-trihydroxyl-N-4-chlorobenzylpiperidine] | doesn’t show any significant improvement | –
CC(=O)CC1C(O)C(O)C(O)CN1Cc1ccccc1Cl [Compound 5r, (1R, 2S, 3R, 4R)-1-Acetylmethyl-2,3,4-trihydroxyl-N-2-chlorobenzylpiperidine] | enhanced the enzyme inhibition | IC50: 12 µM
CC(=O)CC1C(O)C(O)C(O)CN1Cc1cccc(Cl)c1 [Compound 5t, (1R, 2S, 3R, 4R)-1-Acetylmethyl-2,3,4-trihydroxyl-N-3-chlorobenzylpiperidine] | doesn’t show any significant improvement | –
CC(=O)CC1C(O)C(O)C(O)CN1Cc1ccc(Br)cc1 [Compound 5u, (1R, 2S, 3R, 4R)-1-Acetylmethyl-2,3,4-trihydroxyl-N-4-bromobenzylpiperidine] | doesn’t show any significant improvement | –
CC(=O)CC1C(O)C(O)C(O)CN1Cc1ccccc1Br [Compound 5v, (1R, 2S, 3R, 4R)-1-Acetylmethyl-2,3,4-trihydroxyl-N-2-bromobenzylpiperidine] | enhanced the enzyme inhibition | –
CC(=O)CC1C(O)C(O)C(O)CN1Cc1cccc(Br)c1 [Compound 5w, (1R, 2S, 3R, 4R)-1-Acetylmethyl-2,3,4-trihydroxyl-N-3-bromobenzylpiperidine] | doesn’t show any significant improvement | –
CC(=O)CC1C(O)C(O)C(O)CN1Cc1ccc(F)cc1 [Compound 5x, (1R, 2S, 3R, 4R)-1-Acetylmethyl-2,3,4-trihydroxyl-N-4-fluorobenzylpiperidine] | doesn’t show any significant improvement | –
CC(=O)CC1C(O)C(O)C(O)CN1Cc1ccccc1F [Compound 5y, (1R, 2S, 3R, 4R)-1-Acetylmethyl-2,3,4-trihydroxyl-N-2-fluorobenzylpiperidine] | doesn’t show any significant improvement | –
CC(=O)CC1C(O)C(O)C(O)CN1Cc1cccc(F)c1 [Compound 5z, (1R, 2S, 3R, 4R)-1-Acetylmethyl-2,3,4-trihydroxyl-N-3-fluorobenzylpiperidine] | doesn’t show any significant improvement | –
CC(=O)CC1C(O)C(O)C(O)CN1Cc1ccccc1O [Compound 5θ, (1R, 2S, 3R, 4R)-1-Acetylmethyl-2,3,4-trihydroxyl-N-2-hydroxylbenzylpiperidine] | reduced the inhibitory potency significantly | IC50: > 20 µM
CC(=O)CC1C(O)C(O)C(O)CN1Cc1ccc(O)cc1 [Compound 5λ, (1R, 2S, 3R, 4R)-1-Acetylmethyl-2,3,4-trihydroxyl-N-4-hydroxylbenzylpiperidine] | improved the enzyme inhibition | IC50: 7.4 µM
CC(=O)CC1C(O)C(O)C(O)CN1Cc1cccc(O)c1 [Compound 5π, (1R, 2S, 3R, 4R)-1-Acetylmethyl-2,3,4-trihydroxyl-N-3-hydroxylbenzylpiperidine] | reduced the inhibitory potency significantly | IC50: > 20 µM
CC(=O)C[C@@H]1[C@H](O)[C@H](O)[C@H](O)CN1Cc1ccc(O)c(Cl)c1 [Compound 6a, (1R, 2S, 3R, 4R)-1-Acetylmethyl-2,3,4-trihydroxyl-N-3-chloro-4-hydroxylbenzylpiperidine] | – | inhibition potency compared with compound 5λ, in words: slightly improve the inhibition potency; IC50 [1]: 5.6 µM
CC(=O)C[C@@H]1[C@H](O)[C@H](O)[C@H](O)CN1Cc1ccc(O)c(Br)c1 [Compound 6b, (1R, 2S, 3R, 4R)-1-Acetylmethyl-2,3,4-trihydroxyl-N-3-bromo-4-hydroxylbenzylpiperidine] | – | inhibition potency compared with compound 5λ, in words: slightly improve the inhibition potency; IC50 [1]: 5.3 µM
CC(=O)C[C@@H]1[C@H](O)[C@H](O)[C@H](O)CN1Cc1ccc(O)c(F)c1 [Compound 6c, (1R, 2S, 3R, 4R)-1-Acetylmethyl-2,3,4-trihydroxyl-N-3-fluoro-4-hydroxylbenzylpiperidine] | – | inhibition potency compared with compound 5λ, in words: slightly improve the inhibition potency; IC50 [1]: 3.3 µM
CC(=O)C[C@@H]1[C@H](O)[C@H](O)[C@H](O)CN1Cc1ccc(O)cc1Cl [Compound 6d, (1R, 2S, 3R, 4R)-1-Acetylmethyl-2,3,4-trihydroxyl-N-2-chloro-4-hydroxylbenzylpiperidine] | – | inhibition compared with positive control Acarbose, in words: equivalent to positive control Acarbose; IC50 [1]: 2.4 µM
COc1cc(CN2C[C@@H](O)[C@@H](O)[C@@H](O)[C@H]2CC(C)=O)ccc1O [Compound 6f, (1R, 2S, 3R, 4R)-1-Acetylmethyl-2,3,4-trihydroxyl-N-4-hydroxyl-methoxylbenzylpiperidine] | – | IC50: > 20 µM; inhibition potency compared with compound 5λ, in words: severely diminishes the inhibition
CCOc1cc(CN2C[C@@H](O)[C@@H](O)[C@@H](O)[C@H]2CC(C)=O)ccc1O [Compound 6g, (1R, 2S, 3R, 4R)-1-Acetylmethyl-2,3,4-trihydroxyl-N-3-ethyoxyl-4-hydroxylbenzylpiperidine] | – | IC50: > 20 µM; inhibition potency compared with compound 5λ, in words: severely diminishes the inhibition
COc1ccc(CN2C[C@@H](O)[C@@H](O)[C@@H](O)[C@H]2CC(C)=O)cc1O [Compound 6h, (1R, 2S, 3R, 4R)-1-Acetylmethyl-2,3,4-trihydroxyl-N-3-hydroxyl-4-methoxylbenzylpiperidine] | – | IC50: > 20 µM
CC(=O)C[C@@H]1[C@H](O)[C@H](O)[C@H](O)CN1Cc1cc(Br)c(O)c(Br)c1 [Compound 6i, (1R, 2S, 3R, 4R)-1-Acetylmethyl-2,3,4-trihydroxyl-N-3,5-dibromo-4-hydroxylbenzylpiperidine] | – | inhibition potency compared with compound 5λ, in words: slightly improve the inhibition potency; IC50 [1]: 5.5 µM
